pIC50: −log10 of the molar value.
What follows are compounds tested against T1, hAT2 (Homo sapiens, UniProt P50052) (assay: hAT2 receptor binding assay (SPA, [125I]-Sar1-Ile8-Angiotensin II)). Conditions: membrane of HEK-293 cells overexpressing hAT2; 0.1 nM 125I ligand.
T1 construct: expressed in transfected cells; host or cells: HEK-293
T1 sequence (P50052 1-363): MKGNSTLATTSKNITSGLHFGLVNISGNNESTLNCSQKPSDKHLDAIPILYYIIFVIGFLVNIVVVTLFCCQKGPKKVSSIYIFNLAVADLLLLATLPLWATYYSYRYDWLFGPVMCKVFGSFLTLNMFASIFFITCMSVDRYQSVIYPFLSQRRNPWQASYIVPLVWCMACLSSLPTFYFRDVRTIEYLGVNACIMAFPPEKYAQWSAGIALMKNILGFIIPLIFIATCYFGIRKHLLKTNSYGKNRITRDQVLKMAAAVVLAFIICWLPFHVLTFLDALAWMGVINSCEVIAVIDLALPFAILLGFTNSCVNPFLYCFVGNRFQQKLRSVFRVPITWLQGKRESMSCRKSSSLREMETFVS
Procedure: hAT2 Receptor Binding Assay
Protease inhibitor mixture, free of ethylenediaminetetraacetic acid-1 tablets (Roche #11873580001) (50 mL plus one piece)
Experimental Methods and Steps
The reference ligand PD123319 and the test compound were prepared into a 750 μM mother liquor by DMSO; each compound was prepared into a solution of 8 concentration gradients (up to a concentration of 750 μM, 3-fold dilution) and 10 μl of the solution was added to a master of a 384-well plate per well.
The SPA beads were prepared to a mother liquor of 25 mg/ml by the buffer;
The isotope [^125I]-Sar1-Ile8-Angiotensin II was prepared into a mother liquor of 50 μCi/ml by adding pure water.
The cell membrane overexpressing hAT2 in HEK-293 cells was prepared to 2.5 mg/ml by the buffer.
200 nl of compound was aspirated from the mother plate with ECHO to each well of the 384-well test plate. ZPE was added to an equal volume of DMSO. (The concentration of the test compound in the reaction was diluted by 250 times).
A 50 ml membrane solution containing 10 μg/μl of magnetic beads and 0.05 μg/μl of AT2 was prepared, placed on a shaker and uniformly mixed. (100 rpm, 30 min). The test plate finally contained an hAT2 membrane with 1.25 μg/well and magnetic beads with 250 μg/well.
A 3.2 ml membrane liquid mixture was added to the compound test plate by using a Multidrop Combi pipette, and 25 μl was added to each well.
A 0.2 nM solution was prepared with 50 μCi/ml of isotope [^125I]-Sar1-Ile8-Angiotensin II mother liquor by the buffer, and 0.2 nM of ^125I was added to the compound test plate with a Multidrop Combi pipette. A volume of 25 μl was added to each well. The final concentration of ^125I isotope is 0.1 nM.
The prepared test plate was placed on a shaker overnight at room temperature at 200 rpm.
The test plate was centrifuged with a centrifuge at 1200 rpm for 1 min.
The centrifuged test plate was read with Microbeta.

Row | Compound | pIC50
1 | COc1ccc2c(c1OCc1ccccc1)CC(C(=O)O)N(C(=O)C(OC1CCOCC1)c1ccccc1)C2 (single isomer, unassigned) [Compound 2] | 6.07
2 | COc1ccc2c(c1OCc1ccccc1)C[C@@H](C(=O)O)N(C(=O)[C@H](OC1CCC3CC31)c1ccccc1)C2 (single isomer, unassigned) [Compound 61] | 7.14
3 | COc1ccc2c(c1OCc1ccccc1)C[C@@H](C(=O)O)N(C(=O)[C@H](OC1CCC3CC31)c1ccccc1)C2 (single isomer, unassigned) [Compound 62] | 6.57
4 | COCCO[C@H](C(=O)N1Cc2ccc(OC)c(OCc3ccccc3)c2C[C@H]1C(=O)O)c1ccccc1 [Compound 3] | 6.71
5 | COc1ccc2c(c1OCc1ccccc1)C[C@@H](C(=O)O)N(C(=O)[C@@H](OCC(F)(F)F)c1ccccc1)C2 [Compound 7] | 7.45
6 | COc1ccc2c(c1OCc1ccccc1)C[C@@H](C(=O)O)N(C(=O)[C@H](OCC(F)(F)F)c1ccccc1)C2 [Compound 8] | 6.29
7 | COc1ccc2c(c1OCc1ccccc1)C[C@@H](C(=O)O)N(C(=O)[C@H](OC1COC1)c1ccccc1)C2 [Compound 14] | < 5.52
8 | COc1ccc2c(c1OCc1ccccc1)C[C@@H](C(=O)O)N(C(=O)[C@H](Oc1c(F)cc(F)cc1F)c1ccccc1)C2 [Compound 16] | 7.78
9 | COc1ccc2c(c1OCc1ccccc1)C[C@@H](C(=O)O)N(C(=O)[C@@H](Oc1ccccc1F)c1ccccc1)C2 [Compound 17] | 6.84
10 | COc1ccc2c(c1OCc1ccccc1)C[C@@H](C(=O)O)N(C(=O)[C@H](Oc1ccccc1F)c1ccccc1)C2 [Compound 18] | 7.27
11 | COc1ccc2c(c1OCc1ccccc1)C[C@@H](C(=O)O)N(C(=O)[C@H](Oc1ccccc1)c1ccccc1)C2 [Compound 20] | 6.76
12 | COc1ccc2c(c1OCc1ccccc1)C[C@@H](C(=O)O)N(C(=O)[C@@H](Oc1ccccn1)c1ccccc1)C2 [Compound 21] | 6.71
13 | COc1ccc2c(c1OCc1ccccc1)C[C@@H](C(=O)O)N(C(=O)[C@H](Oc1ccccn1)c1ccccc1)C2 [Compound 22] | 5.87
14 | COc1ccc(O[C@H](C(=O)N2Cc3ccc(OC)c(OCc4ccccc4)c3C[C@H]2C(=O)O)c2ccccc2)cc1 [Compound 23] | < 5.52
15 | COc1ccc(O[C@@H](C(=O)N2Cc3ccc(OC)c(OCc4ccccc4)c3C[C@H]2C(=O)O)c2ccccc2)cc1 [Compound 24] | 6.72
16 | COc1ccc2c(c1OCc1ccccc1)C[C@@H](C(=O)O)N(C(=O)[C@H](Oc1cccs1)c1ccccc1)C2 [Compound 26] | 7.02
17 | COc1ccc2c(c1OCc1ccccc1)C[C@@H](C(=O)O)N(C(=O)[C@@H](Oc1ccc(F)cc1F)c1ccccc1)C2 [Compound 27] | 6.61
18 | COc1ccc2c(c1OCc1ccccc1)C[C@@H](C(=O)O)N(C(=O)[C@H](Oc1ccc(F)cc1F)c1ccccc1)C2 [Compound 28] | 7.53
19 | COc1ccc2c(c1OCc1ccccc1)C[C@@H](C(=O)O)N(C(=O)[C@H](OC1CCCC1)c1ccccc1)C2 [Compound 38] | 6.16
20 | COc1ccc2c(c1OCc1ccccc1)C[C@@H](C(=O)O)N(C(=O)[C@@H](NC1CCCC1)c1ccccc1)C2 [Compound 40] | 8.04
21 | COc1ccc2c(c1OCc1ccccc1)C[C@@H](C(=O)O)N(C(=O)[C@H](NC1CCCC1)c1ccccc1)C2 [Compound 41] | 6.66
22 | COc1ccc2c(c1OCc1ccccc1)C[C@@H](C(=O)O)N(C(=O)[C@@H](NC(=O)C1CCCC1)c1ccccc1)C2 [Compound 42] | 6.79
23 | COc1ccc2c(c1OCc1ccccc1)C[C@@H](C(=O)O)N(C(=O)[C@H](NC(=O)C1CCCC1)c1ccccc1)C2 [Compound 43] | < 5.52
24 | COc1ccc2c(c1OCc1ccccc1)C[C@@H](C(=O)O)N(C(=O)[C@@H](OC1CCCCC1)c1ccccc1)C2 [Compound 44] | 8.10
25 | COc1ccc2c(c1OCc1ccccc1)C[C@@H](C(=O)O)N(C(=O)C(Oc1ccccc1)c1ccccc1)C2 (stereo partly drawn) [Compound 46] | 6.73
26 | COc1ccc2c(c1OCc1ccccc1)C[C@@H](C(=O)O)N(C(=O)C(OC1CCCC1)c1ccccc1)C2 (stereo partly drawn) [Compound 47] | 7.77
27 | COc1ccc2c(c1OCc1ccccc1)C[C@@H](C(=O)O)N(C(=O)C(OC1CCC(O)CC1)c1ccccc1)C2 (stereo partly drawn) [Compound 48] | 7.67

More lines, now with the values ahead:

Row | pIC50 | Compound
28 | 7.18 | COc1ccc2c(c1OCc1ccccc1)CC(C(=O)O)N(C(=O)C(OC1CCOCC1)c1ccccc1)C2 (single isomer, unassigned) [Compound 1]
29 | 7.32 | COc1ccc2c(c1OCc1ccccc1)C[C@@H](C(=O)O)N(C(=O)[C@@H](O[C@@H]1CCOC1)c1ccccc1)C2 (single isomer, unassigned) [Compound 9]
30 | 7.22 | COc1ccc2c(c1OCc1ccccc1)C[C@@H](C(=O)O)N(C(=O)[C@H](O[C@@H]1CCOC1)c1ccccc1)C2 (single isomer, unassigned) [Compound 10]
31 | < 5.52 | COc1ccc2c(c1OCc1ccccc1)C[C@@H](C(=O)O)N(C(=O)[C@@H](O[C@H]1CCOC1)c1ccccc1)C2 (single isomer, unassigned) [Compound 11]
32 | < 5.52 | COc1ccc2c(c1OCc1ccccc1)C[C@@H](C(=O)O)N(C(=O)[C@H](OC1CCOC1)c1ccccc1)C2 (single isomer, unassigned) [Compound 12]
33 | 7.64 | COc1ccc2c(c1OCc1ccccc1)C[C@@H](C(=O)O)N(C(=O)[C@@H](OC1CCC3CC31)c1ccccc1)C2 (single isomer, unassigned) [Compound 59]
34 | 8.60 | COc1ccc2c(c1OCc1ccccc1)C[C@@H](C(=O)O)N(C(=O)[C@@H](OC1CCC3CC31)c1ccccc1)C2 (single isomer, unassigned) [Compound 60]
35 | 6.08 | COCCO[C@@H](C(=O)N1Cc2ccc(OC)c(OCc3ccccc3)c2C[C@H]1C(=O)O)c1ccccc1 [Compound 4]
36 | 7.75 | CCCCO[C@H](C(=O)N1Cc2ccc(OC)c(OCc3ccccc3)c2C[C@H]1C(=O)O)c1ccccc1 [Compound 5]
37 | 6.42 | CCCCO[C@@H](C(=O)N1Cc2ccc(OC)c(OCc3ccccc3)c2C[C@H]1C(=O)O)c1ccccc1 [Compound 6]
38 | 6.81 | COc1ccc2c(c1OCc1ccccc1)C[C@@H](C(=O)O)N(C(=O)[C@@H](OC1COC1)c1ccccc1)C2 [Compound 13]
39 | 7.02 | COc1ccc2c(c1OCc1ccccc1)C[C@@H](C(=O)O)N(C(=O)[C@@H](Oc1c(F)cc(F)cc1F)c1ccccc1)C2 [Compound 15]
40 | 6.60 | COc1ccc2c(c1OCc1ccccc1)C[C@@H](C(=O)O)N(C(=O)[C@@H](Oc1ccccc1)c1ccccc1)C2 [Compound 19]
41 | 7.14 | COc1ccc2c(c1OCc1ccccc1)C[C@@H](C(=O)O)N(C(=O)[C@@H](Oc1cccs1)c1ccccc1)C2 [Compound 25]
42 | 6.64 | COc1ccc2c(c1OCc1ccccc1)C[C@@H](C(=O)O)N(C(=O)[C@@H](Oc1ccc(C#N)cc1)c1ccccc1)C2 [Compound 29]
43 | 6.43 | COc1ccc2c(c1OCc1ccccc1)C[C@@H](C(=O)O)N(C(=O)[C@H](Oc1ccc(C#N)cc1)c1ccccc1)C2 [Compound 30]
44 | 7.22 | COc1ccc2c(c1OCc1ccccc1)C[C@@H](C(=O)O)N(C(=O)[C@@H](Oc1ccc(F)cc1)c1ccccc1)C2 [Compound 31]
45 | 7.11 | COc1ccc2c(c1OCc1ccccc1)C[C@@H](C(=O)O)N(C(=O)[C@H](Oc1ccc(F)cc1)c1ccccc1)C2 [Compound 32]
46 | 6.19 | COc1ccc2c(c1OCc1ccccc1)C[C@@H](C(=O)O)N(C(=O)[C@@H](Oc1ccc(Cl)cc1)c1ccccc1)C2 [Compound 33]
47 | 6.64 | COc1ccc2c(c1OCc1ccccc1)C[C@@H](C(=O)O)N(C(=O)[C@H](Oc1ccc(Cl)cc1)c1ccccc1)C2 [Compound 34]
48 | 5.91 | COc1ccc2c(c1OCc1ccccc1)C[C@@H](C(=O)O)N(C(=O)[C@@H](Oc1ccc3ccccc3c1)c1ccccc1)C2 [Compound 35]
49 | 7.01 | COc1ccc2c(c1OCc1ccccc1)C[C@@H](C(=O)O)N(C(=O)[C@H](Oc1ccc3ccccc3c1)c1ccccc1)C2 [Compound 36]
50 | 7.73 | COc1ccc2c(c1OCc1ccccc1)C[C@@H](C(=O)O)N(C(=O)[C@@H](OC(C)(C)C)c1ccccc1)C2 [Compound 39]
51 | 6.31 | COc1ccc2c(c1OCc1ccccc1)C[C@@H](C(=O)O)N(C(=O)[C@H](c1ccccc1)N(C)C1CCCC1)C2 [Compound 45]
